Source: US7217710B2, “Substituted pyrazolopyrimidines” (SmithKline Beecham Corporation, priority 2001, dated 2007)

What was measured:
Assay type in all cases: biochemical
[1] = biological target: T1, GST-TIE2 (intracellular domains of human TIE2) (Homo sapiens, UniProt Q02763); assay: TIE-2 Enzyme Assay (TIE2-E2), LANCE method; conditions: for IC50: read-out: TIE2 PIC50 TIE2-E2 assay
T1 construct: made in house
Description: TIE-2 Enzyme Assay (TIE2-E2
The TIE-2 enzyme assay uses the LANCE method (Wallac) and GST-TIE2, baculovirus-expressed recombinant constructs of the intracellular domains of human TIE2 (amino acids 762–1104, GenBank Accession # L06139) tagged by GST). The method measures the ability of the purified enzymes to catalyse the transfer of the γ-phosphate from ATP onto tyrosine residues in a biotinylated synthetic peptide, D1–15 (biotin-C6-LEARLVAYEGWVAGKKKamide). This peptide phosphorylation is detected using the following procedure: for enzyme preactivation, GST-TIE2 is incubated for 2 hours at room temperature with 80 μM ATP, 10 mM MgCl2, 0.1 mg/ml BSA, 0.01% Tween 20 and 1 mM DTT in 100 mM HEPES buffer (pH7.4). 5 nM preactivated GST-TIE2 is incubated for 2 hours at room temperature in 96 well plates with 1 uM D1–15 peptide, 80 uM ATP, 10 mM MgCl2, 0.1 mg/ml BSA, 0.01% Tween 20 and titrated test compound (diluted from a 10 mM stock in DMSO, final DMSO concentration is 2.4%) in 100 mM HEPES (pH7.4). The reaction is stopped by the addition of EDTA (final concentration 45 mM). Streptavidin linked-APC (allophycocyanin, PerkinElmer) and europium-labeled anti-phosphotyrosine antibody (PerkinElmer) are then added at the final concentration of 8 nM and 1 nM, respectively. The APC signal is measured using an Wallac Multilabel 1420 counter. (Wallac Berthold Japan). The percent inhibition of activity is calculated relative to blank control wells. The concentration of test compound that inhibits 50% of activity (IC50) is interpolated using nonlinear regression (Levernberg-Marquardt) and the equation, y=Vmax (1−x/(K+x))+Y2, where “K” is equal to the IC50. The IC50 values are converted to pIC50 values, i.e., −log IC50 in Molar concentration.

[2] = biological target: T2, GST-VEGFR2 (Homo sapiens, UniProt P35968); assay: VEGF-R2 Enzyme Assay (VEGF-E2), LANCE method; conditions: for IC50: read-out: VEGFR2 PIC50 VEGFR-E2 assay
T2 construct: GST-VEGFR2, baculovirus expressed recombinant constructs of the intracellular domains; made in house
T2 sequence (P35968 786-1356 limits assumed): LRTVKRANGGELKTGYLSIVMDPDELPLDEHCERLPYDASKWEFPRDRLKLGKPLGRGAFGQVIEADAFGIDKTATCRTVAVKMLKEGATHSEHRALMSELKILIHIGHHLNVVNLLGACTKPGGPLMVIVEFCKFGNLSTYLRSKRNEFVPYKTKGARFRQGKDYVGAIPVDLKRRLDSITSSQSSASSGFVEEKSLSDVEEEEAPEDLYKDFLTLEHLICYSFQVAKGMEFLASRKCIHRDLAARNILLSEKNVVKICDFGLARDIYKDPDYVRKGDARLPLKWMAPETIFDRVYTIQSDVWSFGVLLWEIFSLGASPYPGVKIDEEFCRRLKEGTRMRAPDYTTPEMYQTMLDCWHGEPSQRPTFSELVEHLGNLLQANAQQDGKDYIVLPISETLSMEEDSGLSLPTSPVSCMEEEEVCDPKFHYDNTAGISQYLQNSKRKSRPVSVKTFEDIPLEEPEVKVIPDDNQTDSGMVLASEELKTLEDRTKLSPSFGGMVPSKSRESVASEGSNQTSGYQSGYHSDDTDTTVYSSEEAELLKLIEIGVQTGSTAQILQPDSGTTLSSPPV

[3] = biological target: T3, catalytic domain of human VEGFR3 (Homo sapiens, UniProt P35916, H890Q); assay: VEGFR-3 Homogenous Time-Resolved Fluorescence Assay (VEGFR-3-HTRF); conditions: for IC50: read-out: VEGFR3 PIC50 VEGFR-3-HTRF assay
T3 construct: made in house; host or cells: Sf9 insect cells (baculovirus, pFastBac1)
T3 sequence (P35916 with tags, fused parts or gaps isoform P35916-1 H890Q): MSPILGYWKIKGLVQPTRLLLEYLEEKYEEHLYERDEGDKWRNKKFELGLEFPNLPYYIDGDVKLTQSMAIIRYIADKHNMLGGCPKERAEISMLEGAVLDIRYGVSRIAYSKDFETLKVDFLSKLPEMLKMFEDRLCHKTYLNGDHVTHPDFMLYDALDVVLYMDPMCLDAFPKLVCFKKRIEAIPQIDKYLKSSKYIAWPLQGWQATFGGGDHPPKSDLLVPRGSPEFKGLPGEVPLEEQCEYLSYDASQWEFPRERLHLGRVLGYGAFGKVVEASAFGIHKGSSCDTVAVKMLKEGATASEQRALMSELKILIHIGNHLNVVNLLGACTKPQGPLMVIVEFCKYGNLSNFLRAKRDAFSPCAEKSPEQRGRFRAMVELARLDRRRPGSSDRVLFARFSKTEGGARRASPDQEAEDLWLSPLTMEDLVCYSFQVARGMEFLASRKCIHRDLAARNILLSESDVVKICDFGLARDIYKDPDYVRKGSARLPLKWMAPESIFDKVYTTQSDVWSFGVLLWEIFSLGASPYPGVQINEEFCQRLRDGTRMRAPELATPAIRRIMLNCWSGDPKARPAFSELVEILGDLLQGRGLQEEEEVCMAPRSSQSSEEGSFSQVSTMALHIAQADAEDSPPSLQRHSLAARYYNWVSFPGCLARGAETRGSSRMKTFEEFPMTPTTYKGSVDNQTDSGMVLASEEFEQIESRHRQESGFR
Description: VEGFR—3-Homogenous Time-Resolved Fluorescence Assay (VEGFR-3-HTRF)
This assay assesses Vascular Endothelial Growth Factor 3 (VEGFR3) tyrosine kinase inhibitory activity in substrate phosphorylation assays. The assay examines the ability of small molecule organic compounds to inhibit the tyrosine phosphorylation of a peptide substrate.
The substrate phosphorylation assays use the VEGFR3 catalytic domain, which is expressed in Sf. 9 insect cells as an amino-terminal GST-tagged fusion protein. The catalytic domain of human VEGFR3 (AA residues #819–1298 based upon GenBank Accession #XM003852) is cloned by PCR from human Placenta Marathon Ready cDNA (Clontech). The PCR product is subcloned into pFastBac1 vector containing an N-terminal GST tag. The resulting pFB/GST/VEGFR3icd vector is used to generate a recombinant baculovirus for protein expression. The VEGFR3 catalytic domain translated sequence is:
Autophosphorylation allows enzymes to be fully activated prior to addition to peptide substrates. The assays are performed using enzyme that has been activated by autophosphorylation via preincubation in buffer with ATP and magnesium. Activated enzyme is then diluted and added to titrated compound and the substrate mix.
200 nM VEGFR3 enzyme is activated for 45 minutes at room temperature by incubating the enzyme in buffer containing 100 mM HEPES (pH7.2), 75 μM ATP, 0.3 mM DTT, 0.1 mg/mL BSA, and 10 mM MgCl2. After activation, VEGFR3 is diluted 100-fold into 2× dilution buffer: 200 mM HEPES (pH 7.5), 0.2 mg/mL BSA, 0.6 mM DTT. 20 μL of the diluted enzyme mix is added to 20 μL of 2× substrate mix (150 μM ATP, 20 mM MgCl2, 0.72 μM biotinylated peptide) in the assay plates. Final assay conditions are: 100 mM HEPES (pH 7.2), 75 μM ATP, 10 mM MgCl2, 0.1 mg/mL BSA, 0.3 mM DTT, 0.36 μM biotinylated peptide, and 1 nM VEGFR3 enzyme. Assay plates are incubated for 1.5 hours at room temperature before the addition of 30 μL 100 mM EDTA to the wells to stop the enzymatic reaction. 40 μL/well of HTRF mix are then added to the assay plates for the detection of phosphorylated substrate. Final assay concentrations are: 100 mM HEPES (pH7.2), 0.1 mg/mL BSA, 15 nM streptavidin-labeled allophycocyanin (PerkinElmer), and 1 nM europium-labeled anti-phosphotyrosine antibody (PerkinElmer). Assay plates are left unsealed and are counted in a Wallac Multilabel Counter 1420 (PerkinElmer).
The data for dose responses are plotted as % Control calculated with the data reduction formula 100*(U1–C2)/(C1–C2) versus concentration of compound where U is the unknown value, C1 is the average control value obtained for DMSO , and C2 is the average control value obtained for 0.1M EDTA. Data are fitted to the curve described by: y=((Vmax*x)/(K+x)) where Vmax is the upper asymptote and K is the IC50.

T1 sequence (Q02763 762-1104): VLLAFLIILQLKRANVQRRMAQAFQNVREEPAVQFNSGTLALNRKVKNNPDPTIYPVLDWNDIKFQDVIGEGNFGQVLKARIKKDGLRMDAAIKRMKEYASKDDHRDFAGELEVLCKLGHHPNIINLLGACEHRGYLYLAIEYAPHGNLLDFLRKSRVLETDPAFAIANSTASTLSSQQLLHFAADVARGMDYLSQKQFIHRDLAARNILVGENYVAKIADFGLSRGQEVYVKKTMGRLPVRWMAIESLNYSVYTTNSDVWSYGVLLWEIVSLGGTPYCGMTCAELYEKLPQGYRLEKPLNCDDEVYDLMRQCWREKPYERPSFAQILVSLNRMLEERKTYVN

Molecule	TIE2 PIC50 TIE2-E2 assay [1]	VEGFR2 PIC50 VEGFR-E2 assay [2]	VEGFR3 PIC50 VEGFR-3-HTRF assay [3]	IC50 [1] [nM]	IC50 [2] [µM]	IC50 [3] [nM]
1-(2-fluoro-5-trifluoromethyl-phenyl)-3-(4-{methyl-6-(2-oxopyrrolidin-2-yl)-1H-pyrazolo[3,4-d]pyrimidin-3-yl}-phenyl)-urea [Example 61]	+++ (+++ = PIC50 = 7.00 to less than 7.40)	++ (++ = PIC50 = 6.00 to less than 7.00)	+ (+ = PIC50 = 5.00 to less than 6.00)			
1-(Chloro-trifluoromethyl-phenyl)-3-{4-[methyl-(2-morpholin-4-yl -ethylamino)-1H-pyrazolo[3,4-d]pyrimidin-3-yl]-phenyl}-urea [Example 37]	+++ (+++ = PIC50 = 7.00 to less than 7.40)	−− (−− = PIC50 less than 5.00)	+ (+ = PIC50 = 5.00 to less than 6.00)			
2,5-Dichloro-{4-{1-methyl-6-[3-(4-methyl-piperazin-1yl) -propylamino]-1H-pyrazolo[3,4-d]pyrimidin-3-yl}-phenyl}-thiophene-3-sulfonamide [Example 66]	+++ (+++ = PIC50 = 7.00 to less than 7.40)	−− (−− = PIC50 less than 5.00)	−− (−− = PIC50 less than 5.00)			
Cn1nc(-c2ccc(NC(=O)Nc3cc(C(F)(F)F)ccc3F)cc2)c2cnc(NCCN3CCOCC3)nc21 [Example 31, 1-(2-Fluoro-5-trifluoromethyl-phenyl)-3-{4-[1-methyl-6-(2-morpholin-4-yl-ethylamino)-1H-pyrazolo[3,4-d]pyrimidin-3-yl]-phenyl}urea]				39.8 to 100	1 to 10	1000 to 10000
COCCNc1ncc2c(-c3ccc(NC(=O)Nc4cc(C(F)(F)F)ccc4F)cc3)nn(C)c2n1 [Example 32]	+++ (+++ = PIC50 = 7.00 to less than 7.40)	+ (+ = PIC50 = 5.00 to less than 6.00)	+ (+ = PIC50 = 5.00 to less than 6.00)			
Cn1nc(-c2ccc(NC(=O)Nc3cc(C(C)(C)C)on3)cc2)c2cnc(NCCN3CCOCC3)nc21 [Example 35]				39.8 to 100	1 to 10	100 to 1000
Cn1nc(-c2ccc(NC(=O)Nc3ccc4ccccc4c3)cc2)c2cnc(NCCN3CCOCC3)nc21 [Example 39, 1-{4-[1-Methyl-6-(2-morpholin-4-yl-ethylamino)-1H-pyrazolo[3,4-d]pyrimidin-3-y]-phenyl}-3-naphthalen-2-yl-urea]				100 to 1000	1 to 10	1000 to 10000
Cn1nc(-c2ccc(NC(=O)Nc3cc(C(F)(F)F)ccc3F)c(F)c2)c2cnc(NCCN3CCOCC3)nc21 [Example 49]				≤ 39.8	1 to 10	1000 to 10000
Cn1nc(-c2ccc(NC(=O)Nc3cc(C(F)(F)F)cc(C(F)(F)F)c3)c(F)c2)c2cnc(NCCN3CCOCC3)nc21 [Example 53, 1-(3,5-Bis-trifluoromethyl-phenyl)-3-{2-fluoro-[methyl-(2-morpholin-4-yl-ethylamino)-1H-pyrazolo[3,4-d]pyrimidin-3-yl]-phenyl}-urea]	+++ (+++ = PIC50 = 7.00 to less than 7.40)	+ (+ = PIC50 = 5.00 to less than 6.00)				
Cn1nc(-c2ccc(NC(=O)Nc3ccc4ccccc4c3)c(F)c2)c2cnc(NCCN3CCOCC3)nc21 [Example 55]				100 to 1000	> 10	
CN(CCN1CCOCC1)c1ncnc2[nH]nc(-c3ccc(NC(=O)Nc4cc(C(F)(F)F)ccc4F)c(C(F)(F)F)c3)c12 [Example 56, 1-(2-Fluoro-5-trifluoromethyl-phenyl)-3-{[methyl-(2-morpholin-4-yl-ethylamino)-1H-pyrazolo[3,4-d]pyrimidin-3-yl]-(2-trifluoromethyl-phenyl)}-urea]	+ (+ = PIC50 = 5.00 to less than 6.00)	+ (+ = PIC50 = 5.00 to less than 6.00)				
CC(=O)Nc1ncc2c(-c3ccc(NC(=O)Nc4cc(C(F)(F)F)ccc4F)cc3)nn(C)c2n1 [Example 70]				100 to 1000	1 to 10	
Cn1nc(-c2ccc(NC(=O)Nc3cc(C(F)(F)F)ccc3F)cc2)c2cnc(NC(CO)CO)nc21 [Example 83]				100 to 1000	> 10	
